Measured values published in US12448368B2, “Indole compounds as androgen receptor modulators” (NIDO BIOSCIENCES, INC., priority 2020, dated 2025).

Target: T1, androgen receptor (AR) (Homo sapiens, UniProt P10275, T878A)
T1 construct: LNCaP cells expressing ARR2PB-FireflyLuc and CMV-RenillaLuc; endogenous in cells; host or cells: LNCaP cells carrying ARR2PB-FireflyLuc and CMV-RenillaLuc reporters
T1 sequence (P10275 1-920 T878A): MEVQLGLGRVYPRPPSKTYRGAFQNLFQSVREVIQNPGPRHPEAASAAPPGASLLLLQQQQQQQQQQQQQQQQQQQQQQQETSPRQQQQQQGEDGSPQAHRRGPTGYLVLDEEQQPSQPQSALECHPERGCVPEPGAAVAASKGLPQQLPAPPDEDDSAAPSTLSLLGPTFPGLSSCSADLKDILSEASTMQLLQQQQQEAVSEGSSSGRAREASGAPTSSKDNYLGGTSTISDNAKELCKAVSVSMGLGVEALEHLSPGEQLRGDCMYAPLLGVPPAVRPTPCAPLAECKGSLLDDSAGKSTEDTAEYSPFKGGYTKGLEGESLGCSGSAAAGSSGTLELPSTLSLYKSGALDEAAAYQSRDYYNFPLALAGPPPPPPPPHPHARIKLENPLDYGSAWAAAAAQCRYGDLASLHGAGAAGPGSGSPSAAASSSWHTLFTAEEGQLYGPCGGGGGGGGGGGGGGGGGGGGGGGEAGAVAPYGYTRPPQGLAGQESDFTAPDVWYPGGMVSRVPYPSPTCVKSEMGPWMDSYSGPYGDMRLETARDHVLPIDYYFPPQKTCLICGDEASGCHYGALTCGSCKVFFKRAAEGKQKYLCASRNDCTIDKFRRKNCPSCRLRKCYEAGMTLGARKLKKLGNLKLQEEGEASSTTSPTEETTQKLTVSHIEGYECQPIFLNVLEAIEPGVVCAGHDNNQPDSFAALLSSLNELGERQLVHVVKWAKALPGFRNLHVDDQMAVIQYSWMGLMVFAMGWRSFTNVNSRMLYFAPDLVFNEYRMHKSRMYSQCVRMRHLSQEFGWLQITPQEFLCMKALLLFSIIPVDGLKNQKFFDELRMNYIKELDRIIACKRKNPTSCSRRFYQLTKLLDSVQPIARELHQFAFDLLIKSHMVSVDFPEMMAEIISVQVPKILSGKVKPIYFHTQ
Test: AR reporter assay in LNCaP cells expressing ARR2PB-FireflyLuc and CMV-RenillaLuc, antagonist mode (% remaining activity, IC50)
Type: cell-based
Details: 48 h at 37° C., class symbols A-D, read-out: IC50
Summary of the method: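 LNCaP cells carrying ARR2PB-firefly and CMV-Renilla luciferase reporters were treated 48 h at 37 °C with compound plus 0.5 nM DHT. Signals were normalised between 0.5 nM DHT alone and 10 uM enzalutamide + DHT to give % remaining activity, and IC50 was obtained by non-linear regression.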

Compound	IC50
Cc1nc(-c2coc3c(C#N)cccc23)cnc1N [Compound 310]	> 10000 nM
CC(=O)N1CCC(Oc2ncc(-c3c[nH]c4cccnc34)nc2C)C1 (stereo not drawn) [Compound 311]	> 10000 nM
CC(=O)N1CCC(Oc2ncc(-c3n[nH]c4c(C#N)cccc34)nc2C)C1 (stereo not drawn) [Compound 312]	1000 to 10000 nM
CC(=O)N1CCC(Oc2ncc(-c3c[nH]c4c(C)cccc34)nc2C)C1 (stereo not drawn) [Compound 313]	1000 to 10000 nM
Cc1cccc2c(-c3ccc4c(n3)C(C)(C)NC4=O)c[nH]c12 [Compound 314]	100 to 1000 nM
CC1(C)NC(=O)c2ccc(-c3c[nH]c4ncccc34)nc21 [Compound 315]	100 to 1000 nM
COc1nc(-c2c[nH]c3c(C#N)cccc23)ccc1C(N)=O [Compound 316]	> 10000 nM
COCCN1CCC(Oc2ncc(-c3c[nH]c4c(C#N)cccc34)nc2C)C1 (stereo not drawn) [Compound 317]	1000 to 10000 nM
COCC(=O)N1CCC(Oc2ncc(-c3c[nH]c4c(C#N)cccc34)nc2C)C1 (stereo not drawn) [Compound 318]	100 to 1000 nM
Cc1nc(-c2c[nH]c3c(C#N)cccc23)cnc1OC1CNCC1(F)F (stereo not drawn) [Compound 322]	1000 to 10000 nM
CC(=O)N1CC(Oc2ncc(-c3c[nH]c4c(C#N)cccc34)nc2C)C(F)(F)C1 (stereo not drawn) [Compound 323]	100 to 1000 nM
Cc1nc(-c2c[nH]c3c(C#N)cccc23)ccc1OCC(C)(C)O [Compound 324]	1000 to 10000 nM
Cc1nc(-c2c[nH]c3c(C#N)cccc23)cnc1OCC1(C)COC1 [Compound 325]	100 to 1000 nM
Cc1nc(-c2c[nH]c3c(C#N)cccc23)cnc1N(C)CC(C)(C)O [Compound 326]	1000 to 10000 nM
CCN(CC(C)(C)O)c1ncc(-c2c[nH]c3c(C#N)cccc23)nc1C [Compound 327]	1000 to 10000 nM
Cc1nc(-c2c[nH]c3c(C#N)cccc23)cnc1O[C@H]1CN[C@@H](C)C1 [Compound 328]	> 10000 nM
Cc1nc(-c2c[nH]c3c(C#N)cccc23)cnc1O[C@H]1CN[C@H](C)C1 [Compound 329]	> 10000 nM
Cc1nc(-c2c[nH]c3c(C#N)cccc23)cnc1O[C@@H]1CN[C@@H](C)C1 [Compound 330]	> 10000 nM
Cc1nc(-c2c[nH]c3c(C#N)cccc23)cnc1O[C@@H]1CN[C@H](C)C1 [Compound 331]	> 10000 nM
Cc1nc(-c2c[nH]c3c(F)cccc23)cnc1OCC(C)(C)O [Compound 332]	1000 to 10000 nM
Cc1nc(-c2c[nH]c3c(C#N)cccc23)cnc1OCC1(O)CC1 [Compound 333]	> 10000 nM
Cc1nc(-c2c[nH]c3c(C#N)cccc23)cnc1O[C@@H](C)[C@H](C)O [Compound 334]	1000 to 10000 nM
Cc1nc(-c2c[nH]c3c(C#N)cccc23)cnc1O [Compound 335]	1000 to 10000 nM
Cc1nc(-c2csc3cc(F)ccc23)cnc1OCC(C)(C)O [Compound 336]	100 to 1000 nM
Cc1nc(-c2coc3c(Cl)cccc23)cnc1OCC(C)(C)O [Compound 337]	100 to 1000 nM
Cc1nc(-c2coc3ccccc23)cnc1OCC(C)(C)O [Compound 338]	> 10000 nM
Cc1nc(-c2c[nH]c3c(C#N)cccc23)cnc1OCCO [Compound 340]	> 10000 nM
Cc1nc(-c2c[nH]c3c(C#N)cccc23)cnc1OCC(C)O (stereo not drawn) [Compound 341]	1000 to 10000 nM
CC(C)(O)COc1ncc(-c2c[nH]c3c(C#N)cccc23)nc1C1CC1 [Compound 342]	> 10000 nM
Cc1nc(-c2c[nH]c3c(Cl)nccc23)cnc1OCC(C)(C)O [Compound 343]	> 10000 nM
